In US20240101589A1, “INHIBITORS OF METTL3” (Strom Therapeutics Limited, priority 2020, published 2024) one finds IC50 data, which are given here for 20 compounds.

Sequence of METTL3/14 (Q86U44 whole entry): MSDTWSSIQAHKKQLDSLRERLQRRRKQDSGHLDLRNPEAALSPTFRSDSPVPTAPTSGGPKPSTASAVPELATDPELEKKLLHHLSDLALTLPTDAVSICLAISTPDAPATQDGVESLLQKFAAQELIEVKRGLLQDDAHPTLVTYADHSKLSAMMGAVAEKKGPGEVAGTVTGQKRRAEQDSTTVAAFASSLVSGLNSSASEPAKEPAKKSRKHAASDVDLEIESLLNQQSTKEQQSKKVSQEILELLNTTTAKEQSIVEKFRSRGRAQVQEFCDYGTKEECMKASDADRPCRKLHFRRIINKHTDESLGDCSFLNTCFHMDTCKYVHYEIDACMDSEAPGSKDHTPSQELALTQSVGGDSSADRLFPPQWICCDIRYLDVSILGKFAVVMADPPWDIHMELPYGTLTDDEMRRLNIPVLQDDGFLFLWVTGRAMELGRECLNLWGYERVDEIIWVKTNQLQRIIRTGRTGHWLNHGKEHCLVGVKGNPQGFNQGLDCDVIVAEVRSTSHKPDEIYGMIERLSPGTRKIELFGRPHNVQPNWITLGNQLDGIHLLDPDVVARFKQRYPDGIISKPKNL
Sequence of METTL3/14 (Q9HCE5 whole entry partner): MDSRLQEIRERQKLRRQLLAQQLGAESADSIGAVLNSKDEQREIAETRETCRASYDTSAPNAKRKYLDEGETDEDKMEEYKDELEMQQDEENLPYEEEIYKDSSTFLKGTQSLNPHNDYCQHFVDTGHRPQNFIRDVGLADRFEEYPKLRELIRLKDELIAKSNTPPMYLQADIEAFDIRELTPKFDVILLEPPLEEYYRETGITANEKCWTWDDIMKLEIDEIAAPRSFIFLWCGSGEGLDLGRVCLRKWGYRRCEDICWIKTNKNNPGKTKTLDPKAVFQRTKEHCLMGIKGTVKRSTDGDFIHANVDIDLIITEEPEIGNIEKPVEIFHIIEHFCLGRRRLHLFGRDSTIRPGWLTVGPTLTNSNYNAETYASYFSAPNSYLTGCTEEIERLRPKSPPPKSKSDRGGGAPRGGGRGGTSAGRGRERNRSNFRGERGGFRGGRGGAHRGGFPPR

For one assay, the system named is KASUMI-1 cells. In words: Kasumi cell proliferation CTG. The assay is classed as cell-based. The conditions noted are these: Homo sapiens, Kasumi 1, 120 h, treated for 120 hours, CellTiter-Glo. On the procedure:
Cell culture: KASUMI-1 cells (ACC20, Leibniz-Institut DSMZ Deutsche Sammlung von Mikroorganismen und Zellkulturen GmbH) were grown in RPMI 1640 (31870-025, Gibco) supplemented with 20% fetal bovine serum (F1524, Gibco), 1 mM sodium pyruvate (11360-039, Gibco) and 2 mM Glutamax (35050-038, Gibco) in a 5% CO2 humidified incubator at 37° C.
Cell treatment and cell growth assessment: KASUMI-1 cells were seeded in ultra-low attachment 384-well culture plate (MS-9384WZ, SBio) at a final concentration of 250 000 cells/ml (35 μL/well) and treated for 120 hours with compounds inhibiting the METTL3/14 activity (10 serial semi-log dilutions, 30 μM as top concentration). Upon treatment, Kasumi1 cells were incubated for 10 min at RT with the CellTiter-Glo reagent (G7571, Promega). Measurement of the luminescence signal was performed on a microplate reader (Ensight, PerkinElmer).
A word on the IC50: it is the concentration needed to halve the response being measured. The low end stands for greater potency, the high end for weaker potency. For `Nc1ncnc2c1c(Br)cn2[C@@H]1O[C@H](/C=C/CCCNCC2CC(F)(F)C2)[C@@H](O)[C@H]1O` [Example 4, (2R,3R,4S,5R)-2-{4-amino-5-bromo-7H-pyrrolo[2,3-d]pyrimidin-7-yl}-5-[(1E)-5-{[(3,3-difluorocyclobutyl)methyl]amino}pent-1-en-1-yl]oxolane-3,4-diol], the midpoint of inhibition, the IC50, lay at 4800 nM. That is a single-digit micromolar value.

`Nc1ncnc2c1c(Br)cn2[C@@H]1O[C@H](/C=C/C2CC(N)C2)[C@@H](O)[C@H]1O` (stereo partly drawn) [Example 17, (2R,3R,4S,5R)-2-{4-amino-5-bromo-7H-pyrrolo[2,3-d]pyrimidin-7-yl}-5-[(1E)-2-(3-aminocyclobutyl)ethenyl]oxolane-3,4-diol]: inhibition was half-maximal at 12400 nM (IC50).

Staying with this assay, now noted: treated for 120 hours, CellTiter-Glo.
`Nc1ncnc2c1c(Br)cn2[C@@H]1O[C@H](/C=C/CCCNCc2ccccc2)[C@@H](O)[C@H]1O` [Example 1, (2R,3R,4S,5R)-2-(4-amino-5-bromo-7H-pyrrolo[2,3-d]pyrimidin-7-yl)-5-((E)-5-(benzylamino)pent-1-en-1-yl)tetrahydrofuran-3,4-diol] returned an IC50 of 4900 nM. In other words, the single-digit micromolar range.

Another assay has as its target METTL3/14 (Homo sapiens (Human), UniProt Q86U44). In words: METTL3/14 methyltransferase assay (RapidFire mass spectrometry, RFMS). The assay is classed as biochemical. The conditions noted are these: 5 nM METTL3/14, 0.2 μM RNA substrate, 0.5 μM SAM, 60 minutes at room temperature. How it is done: The enzymatic assay was established to determine IC50 values for inhibition of RNA methyltransferase activity. The enzyme used was full-length his-tagged METTL3 co-expressed with full length FLAG-tagged METTL14 in a baculovirus expression system. Enzymatic reactions were performed at room temperature in 384-well plates using a final reaction volume of 20 μL containing 20 mM TrisCl pH 7.6, 1 mM DTT, 0.01% Tween-20. 5 nM final concentration of METTL3/14 was pre-incubated with various compound concentrations for 10 minutes, followed by addition of 0.2 μM final concentration synthetic RNA substrate (5′P-[…]-3′) and 0.5 μM final concentration S-adenosyl-methionine (SAM). The reaction was incubated for a further 60 minutes at room temperature, and then quenched by the addition of 40 μL 7.5% TCA with two internal product standards (D4-SAH and 13C10-SAH). After termination, plates were sealed, centrifuged and stored at 4° C. until analysis.
RNA methyltransferase activity was measured label free using the RapidFire™ mass spectrometry (RF/MS) platform. Stopped and stable assay plates were analyzed on the Agilent RF300 integrated autosampler/solid-phase extraction (SPE) system coupled to an ABSciex 4000 mass spectrometer for the generation of the product S-adenosyl homocysteine (SAH) and normalized to the ratio of signal of the two internal product standards, respectively. Solvent A was water containing 0.1% (v/v) TCA. Solvent B was acetonitrile/0.1% ammonium acetate (8:2, v/v). More specifically, plates were centrifuged at 4350 rpm for 10 min, samples were aspirated under vacuum for 600 ms, then loaded onto a C18 solid-phase extraction cartridge and washed for 3 s with solvent A at a flow rate of 1.5 mL/min. Retained product and internal standards were eluted with solvent B at a flow rate of 1 mL/min for 3 s and finally the cartridge was re-equilibrated with solvent A for 500 ms. The mass transition for the product (SAH) was 384.9/135.9 Da. Transitions of the two internal product standards (IS1: D4-SAH and IS2: 13C10-SAH) were 389.1/135.8 Da and 395.0/134.2 Da, respectively. Ratios of SAH/IS1 and SAH/IS2 were used for normalization of matrix effects. IC50 values were calculated based on dilution series of individual compounds. Potency of a compound was measured at varied inhibitor concentrations and normalized to control wells without RNA substrate and without inhibition (DMSO only).
Compound `Nc1ncnc2c1c(Br)cn2[C@@H]1O[C@H](/C=C/CCCNCc2ccccc2)[C@@H](O)[C@H]1O` [Example 1, (2R,3R,4S,5R)-2-(4-amino-5-bromo-7H-pyrrolo[2,3-d]pyrimidin-7-yl)-5-((E)-5-(benzylamino)pent-1-en-1-yl)tetrahydrofuran-3,4-diol] gave an IC50 of 44.8 nM.

`Nc1ncnc2c1c(Br)cn2[C@@H]1O[C@H](/C=C/CCNCc2ccccc2)[C@@H](O)[C@H]1O` [Example 3, (2R,3R,4S,5R)-2-{4-amino-5-bromo-7H-pyrrolo[2,3-d]pyrimidin-7-yl}-5-[(1E)-4-(benzylamino)but-1-en-1-yl]oxolane-3,4-diol] displayed an IC50 of 317 nM.

The compound `NCC/C=C/[C@H]1O[C@@H](n2cc(Br)c3c(N)ncnc32)[C@H](O)[C@@H]1O` [Example 7, (2R,3R,4S,5R)-2-{4-amino-5-bromo-7H-pyrrolo[2,3-d]pyrimidin-7-yl}-5-[(1E)-4-aminobut-1-en-1-yl]oxolane-3,4-diol] gave an IC50 of 568 nM.

Turning to `NCCC/C=C/[C@H]1O[C@@H](n2cc(Br)c3c(N)ncnc32)[C@H](O)[C@@H]1O` [Example 8, (2R,3R,4S,5R)-2-{4-amino-5-bromo-7H-pyrrolo[2,3-d]pyrimidin-7-yl}-5-[(1E)-5-aminopent-1-en-1-yl]oxolane-3,4-diol], half-maximal inhibition (IC50) required 505 nM. The IC50 values of the last two compounds are within 1.5-fold of each other.

`Nc1ncnc2c1c(Br)cn2[C@@H]1O[C@H](/C=C/C2CNC2)[C@@H](O)[C@H]1O` [Example 13, (2R,3R,4S,5R)-2-{4-amino-5-bromo-7H-pyrrolo[2,3-d]pyrimidin-7-yl}-5-[(1E)-2-(azetidin-3-yl)ethenyl]oxolane-3,4-diol]: the IC50 was 460 nM.

Compound `Nc1ncnc2c1c(Br)cn2[C@@H]1O[C@H](/C=C/C2CCNCC2)[C@@H](O)[C@H]1O` [Example 14, (2R,3R,4S,5R)-2-{4-amino-5-bromo-7H-pyrrolo[2,3-d]pyrimidin-7-yl}-5-[(1E)-2-(piperidin-4-yl)ethenyl]oxolane-3,4-diol] displayed an IC50 of 413 nM. This IC50 and that of the compound before are within 1.5-fold of each other.

The compound `Nc1ncnc2c1c(Br)cn2[C@@H]1O[C@H](/C=C/C2CCCNC2)[C@@H](O)[C@H]1O` (stereo partly drawn) [Example 15, (2R,3R,4S,5R)-2-{4-amino-5-bromo-7H-pyrrolo[2,3-d]pyrimidin-7-yl}-5-[(1E)-2-(piperidin-3-yl)ethenyl]oxolane-3,4-diol] gave an IC50 of 351 nM.

As for `Nc1ncnc2c1c(Br)cn2[C@@H]1O[C@H](/C=C/C2CCNC2)[C@@H](O)[C@H]1O` (stereo partly drawn) [Example 16, (2R,3R,4S,5R)-2-{4-amino-5-bromo-7H-pyrrolo[2,3-d]pyrimidin-7-yl}-5-[(1E)-2-(pyrrolidin-3-yl)ethenyl]oxolane-3,4-diol], the midpoint of inhibition, the IC50, lay at 453 nM.

`Nc1ncnc2c1c(Br)cn2[C@@H]1O[C@H](/C=C/C2CC(N)C2)[C@@H](O)[C@H]1O` (stereo partly drawn) [Example 17, (2R,3R,4S,5R)-2-{4-amino-5-bromo-7H-pyrrolo[2,3-d]pyrimidin-7-yl}-5-[(1E)-2-(3-aminocyclobutyl)ethenyl]oxolane-3,4-diol] came in with an IC50 of 1310 nM.

With `Nc1ncnc2c1c(Br)cn2[C@@H]1O[C@H](/C=C/C2COC2)[C@@H](O)[C@H]1O` [Example 18, (2R,3R,4S,5R)-2-{4-amino-5-bromo-7H-pyrrolo[2,3-d]pyrimidin-7-yl}-5-[(1E)-2-(oxetan-3-yl)ethenyl]oxolane-3,4-diol], the IC50 worked out at 2930 nM.

For `Nc1ncnc2c1c(Br)cn2[C@@H]1O[C@H](/C=C/CC2CNC2)[C@@H](O)[C@H]1O` [Example 19, (2R,3R,4S,5R)-2-{4-amino-5-bromo-7H-pyrrolo[2,3-d]pyrimidin-7-yl}-5-[(1E)-3-(azetidin-3-yl)prop-1-en-1-yl]oxolane-3,4-diol], the IC50 turned out to be 522 nM.

The compound `Nc1ncnc2c1c(Br)cn2[C@@H]1O[C@H](/C=C/CCCN2CCC(F)(F)CC2)[C@@H](O)[C@H]1O` [Example 23, (2R,3R,4S,5R)-2-{4-amino-5-bromo-7H-pyrrolo[2,3-d]pyrimidin-7-yl}-5-[(1E)-5-(4,4-difluoropiperidin-1-yl)pent-1-en-1-yl]oxolane-3,4-diol] gave an IC50 of 63.5 nM.

In turn, `Nc1ncnc2c1c(Br)cn2[C@@H]1O[C@H](/C=C/CCCN2CCC(F)CC2)[C@@H](O)[C@H]1O` [Example 24, (2R,3R,4S,5R)-2-{4-amino-5-bromo-7H-pyrrolo[2,3-d]pyrimidin-7-yl}-5-[(1E)-5-(4-fluoropiperidin-1-yl)pent-1-en-1-yl]oxolane-3,4-diol] came in with an IC50 of 231 nM.

In turn, `Nc1ncnc2c1c(Br)cn2[C@@H]1O[C@H](/C=C/CCCN2CCOCC2)[C@@H](O)[C@H]1O` [Example 25, (2R,3R,4S,5R)-2-{4-amino-5-bromo-7H-pyrrolo[2,3-d]pyrimidin-7-yl}-5-[(1E)-5-(morpholin-4-yl)pent-1-en-1-yl]oxolane-3,4-diol] yielded an IC50 of 1090 nM. This IC50 lies about 4.7-fold higher than the previous one.

As to `Nc1ncnc2c1c(Br)cn2[C@@H]1O[C@H](/C=C/CCCN2CCCC(F)C2)[C@@H](O)[C@H]1O` (stereo partly drawn) [Example 26, (2R,3R,4S,5R)-2-{4-amino-5-bromo-7H-pyrrolo[2,3-d]pyrimidin-7-yl}-5-[(1E)-5-(3-fluoropiperidin-1-yl)pent-1-en-1-yl]oxolane-3,4-diol], the midpoint of inhibition, the IC50, lay at 351 nM. This IC50 lies about 3.1-fold lower than the previous one.

`Nc1ncnc2c1c(Br)cn2[C@@H]1O[C@H](/C=C/CCCNCC23CC(F)(C2)C3)C[C@H]1O` [Example 27, (2R,3R,5S)-2-{4-amino-5-bromo-7H-pyrrolo[2,3-d]pyrimidin-7-yl}-5-[(1E)-5-[({3-fluorobicyclo[1.1.1]pentan-1-yl}methyl)amino]pent-1-en-1-yl]oxolan-3-ol]: the IC50 was determined as 9.6 nM.

Regarding `Nc1ncnc2c1c(Br)cn2[C@@H]1O[C@H](/C=C/CCCNCC23CC(F)(C2)C3)[C@H](F)[C@H]1O` [Example 28, (2R,3S,4R,5R)-2-{4-amino-5-bromo-7H-pyrrolo[2,3-d]pyrimidin-7-yl}-4-fluoro-5-[(1E)-5-[({3-fluorobicyclo[1.1.1]pentan-1-yl}methyl)amino]pent-1-en-1-yl]oxolan-3-ol], half-maximal inhibition (IC50) was put at 19.7 nM.

In turn, `Nc1ncnc2c1c(Br)cn2[C@@H]1C[C@H](c2cccc(C(=O)NCC34CC(F)(C3)C4)c2)[C@@H](O)[C@H]1O` [Example 40, 3-[(1R,2R,3S,4R)-4-{4-amino-5-bromo-7H-pyrrolo[2,3-d]pyrimidin-7-yl}-2,3-dihydroxycyclopentyl]-N-({3-fluorobicyclo[1.1.1]pentan-1-yl}methyl)benzamide] came in with an IC50 of 7930 nM.

In turn, `Nc1ncnc2c1c(Br)cn2[C@@H]1O[C@H](/C=C/CCCNCC23CC(F)(C2)C3)[C@@H](O)[C@H]1F` [Example 41, (2R,3R,4R,5R)-5-{4-amino-5-bromo-7H-pyrrolo[2,3-d]pyrimidin-7-yl}-4-fluoro-2-[(1E)-5-[({3-fluorobicyclo[1.1.1]pentan-1-yl}methyl)amino]pent-1-en-1-yl]oxolan-3-ol] gave an IC50 of 60 nM.
